Experimental data: patent US20110130386A1, “DNA-PK INHIBITORS” (priority 2008, published 2011)

biological target: Mammalian DNA-PK (Homo sapiens, UniProt P78527); assay: DNA-PK inhibition assay (ELISA of p53 Ser15 phosphorylation of GST-p53N66); type: biochemical, Mammalian (isolated from HeLa cell nuclear extract); details: not given
Procedure: In order to assess the inhibitory action of the compounds against DNA-PK in vitro, the following assay was used to determine IC50 values.
To the assay mix, varying concentrations of inhibitor (in DMSO at a final concentration of 1%) were added. After 10 minutes of incubation, ATP was added to give a final concentration of […] along with a 30 mer double stranded DNA oligonucleotide (final concentraion of 0.5 ng/ml) to initiate the reaction. After 1 hour with shaking, 150 μl of phosphate buffered saline (PBS) was added to the reaction and 5 μl then transferred to a 96 well opaque white plate containing 45 μl of PBS per well where the GSTp53N66 substrate was allowed to bind to the wells for 1 hour. To detect the phosphorylation event on the serine 15 residue of p53 elicited by DNA-PK a p53 phosphoserine-15 antibody (Cell Signaling Technology) was used in a basic ELISA procedure. An anti-rabbit HRP conjugated secondary antibody (Pierce) was then employed in the ELISA before the addition of chemiluminescence reagent. (NEN Renaissance) to detect the signal as measured by chemiluminescent counting via a TopCount NXT (Packard).
The enzyme activity for each compound is then calculated using the following equation: […]
The results are discussed below as IC50 values (the concentration at which 50% of the enzyme activity is inhibited). These are determined over a range of different concentrations, normally from 10 μM down to 0.001 μM. Such IC50 values are used as comparative values to identify increased compound potencies.

Structure (SMILES) | IC50
O=c1cc(N2CCOCC2)oc2c(-c3cccc4c3sc3ccccc34)cccc12 [reference compound] | 10 to 12 nM

same assay, conditions: DNA-PK from HeLa nuclear extract; mean value; read-out: mean IC50

Structure (SMILES) | IC50
O=c1cc(N2CCOCC2)oc2c(-c3ccc(CN4CCC(O)CC4)c4c3sc3ccccc34)cccc12 [4j] | 508 nM
O=c1cc(N2CCOCC2)oc2c(-c3ccc(CN4CCNCC4)c4c3sc3ccccc34)cccc12 [4k] | 7.14 nM
O=c1cc(N2CCOCC2)oc2c(-c3ccc(CN4CCC(O)C4)c4c3sc3ccccc34)cccc12 (centres unmarked) [4l] | 30.3 nM
CN(C)Cc1ccc(-c2cccc3c(=O)cc(N4CCOCC4)oc23)c2sc3ccccc3c12 [4m] | 293 nM
COc1cccc(N2CCN(Cc3ccc(-c4cccc5c(=O)cc(N6CCOCC6)oc45)c4sc5ccccc5c34)CC2)c1 [4n] | 975 nM
COc1ccc(N2CCN(Cc3ccc(-c4cccc5c(=O)cc(N6CCOCC6)oc45)c4sc5ccccc5c34)CC2C)cc1 (centres unmarked) [4o] | 502 nM
O=c1cc(N2CCOCC2)oc2c(-c3ccc(CN4CCC(CO)CC4)c4c3sc3ccccc34)cccc12 [4p] | 96 nM
C[C@@H]1CN(Cc2ccc(-c3cccc4c(=O)cc(N5CCOCC5)oc34)c3sc4ccccc4c23)C[C@H](C)O1 [4q] | 83.3 nM
O=c1cc(N2CCOCC2)oc2c(-c3ccc(CN4CCCC(CO)C4)c4c3sc3ccccc34)cccc12 (centres unmarked) [4r] | 124 nM
CN(Cc1ccccc1)Cc1ccc(-c2cccc3c(=O)cc(N4CCOCC4)oc23)c2sc3ccccc3c12 [4s] | 942 nM
COCCN1CCN(Cc2ccc(-c3cccc4c(=O)cc(N5CCOCC5)oc34)c3sc4ccccc4c23)CC1 [4t] | 7.92 nM
CN(C)CCN(C)Cc1ccc(-c2cccc3c(=O)cc(N4CCOCC4)oc23)c2sc3ccccc3c12 [4u] | 27.3 nM
CN1CCN(Cc2ccc(-c3cccc4c(=O)cc(N5CCOCC5)oc34)c3sc4ccccc4c23)CC1 [4v] | 1.31 nM
O=c1cc(N2CCOCC2)oc2c(-c3ccc(CN4CCCCCC4)c4c3sc3ccccc34)cccc12 [4x] | 1910 nM
CCN(CC)Cc1ccc(-c2cccc3c(=O)cc(N4CCOCC4)oc23)c2sc3ccccc3c12 [4y] | 1960 nM
CC(=O)N1CCN(Cc2ccc(-c3cccc4c(=O)cc(N5CCOCC5)oc34)c3sc4ccccc4c23)CC1 [4z] | 77.9 nM

test system: HeLa cells; assay: Survival Enhancement Ratio (clonogenic survival after 2 Gray irradiation); type: cell-based, human; details: example compound of WO 03/024949; concentration not given
Procedure: The Survival Enhancement Ratio (SER) is a ratio of the enhancement of cell kill elicited by the DNA-PK inhibitor after 2 Grays of irradiation compared to […]. DNA-PK inhibitors were used at a concentration of 25, 50, 100 and/or 500 nM. Radiation was delivered by a Faxitron 43855D machine at a dose rate of 1 Gy pre minute The SER at 2 Gray irradiation was calculated from the formula:
The degree of cell killing was monitored by a standard clonogenic survival assay. Briefly, tissue culture treated 6-well plates were seeded with HeLa cells at an appropriate concentration to give 100-200 colonies per well and returned to the incubator in order to allow the cells to attach. Four hours later, compound or vehicle control was added to the cells. The cells were then incubated for 1 hour in the presence of inhibitor prior to irradiation at 2 Gray using a Faxitron 43855D cabinet X-ray machine. The cells were then incubated for a further 16 hours before the media was replaced with fresh media in the absence of DNA-PK inhibitor. After 8 days, colonies formed were fixed and stained with Giemsa (Sigma, Poole, UK) and scored using an automated colony counter (Oxford Optronics Ltd, Oxford, UK). The data was calculated as described above.

Structure (SMILES) | SER
O=c1cc(N2CCOCC2)oc2c(-c3cccc4c3sc3ccccc34)cccc12 [reference compound] | 1.3

biological target: PI 3-kinase; assay: not given; details: stated as the same as for DNA-PK; cited from earlier work

Structure (SMILES) | IC50
O=c1cc(N2CCOCC2)oc2c(-c3ccccc3)cccc12 [LY294002] | ~1000 nM

test system: cells; assay: not given; details: Rosenzweig et al. 1999; cited from earlier work

Structure (SMILES) | sensitisation of cells to the effects of IR
O=c1cc(N2CCOCC2)oc2c(-c3ccccc3)cccc12 [LY294002] | weakly sensitise cells to the effects of IR
